Source: patent US9957271B2, “Substituted bicyclic aza-heterocycles and analogues as sirtuin modulators” (GlaxoSmithKline, LLC, priority 2012, dated 2018)
Read-outs that look alike come from different tables or passages of the source.

Biological target: T1, SIRT1 (Homo sapiens, UniProt Q96EB6)
T1 sequence (Q96EB6 1-747): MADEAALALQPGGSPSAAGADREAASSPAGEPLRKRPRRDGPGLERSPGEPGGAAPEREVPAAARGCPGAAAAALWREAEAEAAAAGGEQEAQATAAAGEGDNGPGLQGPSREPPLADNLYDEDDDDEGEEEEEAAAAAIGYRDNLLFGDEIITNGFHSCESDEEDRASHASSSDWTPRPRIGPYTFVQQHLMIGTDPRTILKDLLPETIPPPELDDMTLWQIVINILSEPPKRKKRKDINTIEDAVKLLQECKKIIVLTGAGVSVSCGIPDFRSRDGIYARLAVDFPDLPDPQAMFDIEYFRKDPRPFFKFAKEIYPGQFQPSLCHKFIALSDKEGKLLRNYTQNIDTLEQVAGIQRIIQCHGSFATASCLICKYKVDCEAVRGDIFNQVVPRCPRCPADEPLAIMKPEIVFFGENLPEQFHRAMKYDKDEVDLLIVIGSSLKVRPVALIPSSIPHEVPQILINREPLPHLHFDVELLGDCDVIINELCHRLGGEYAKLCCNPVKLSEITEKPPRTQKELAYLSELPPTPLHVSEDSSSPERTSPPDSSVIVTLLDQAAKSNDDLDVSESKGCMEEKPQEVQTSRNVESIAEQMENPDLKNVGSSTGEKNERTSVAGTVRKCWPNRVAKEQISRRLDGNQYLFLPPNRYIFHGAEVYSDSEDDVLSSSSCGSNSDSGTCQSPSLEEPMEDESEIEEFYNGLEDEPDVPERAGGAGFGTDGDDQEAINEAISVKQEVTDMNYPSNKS
Assay: TAMRA based mass spectrometry assay of SIRT1 activity
Format: biochemical
Conditions: for Emax: read-out: TAMRA % Fold Act
Procedure, shortened: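 Deacetylation of a biotinylated, TAMRA-tagged p53-based peptide (0.5 μM) by 10 nM His-tagged SIRT1 with 120 μM βNAD+, 25 °C for 25 min, pH 8 Tris-acetate buffer, across a compound concentration range. Quenched by formic acid and read by mass spec as product peptide or OAADPR; activity relative to DMSO reactions, nicotinamide defining maximal inhibition.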

[1] = TAMRA assay, concentration giving 150% activation of SIRT1
[2] = TAMRA assay, percent maximum fold activation
[3] = concentration of test compound giving 150% activation of SIRT1, TAMRA peptide substrate
[4] = percent maximum fold activation of SIRT1, TAMRA peptide substrate
[5] = TAMRA peptide substrate, concentration giving 150% activation of SIRT1
[6] = TAMRA peptide substrate, percent maximum fold activation

Question: For `O=C(Nc1ccnc(OCC(F)(F)F)n1)c1cnc2ccc(-c3ccccc3C(F)(F)F)nn12` [Compound 325], which “TAMRA EC1.5 (μM)” value [1] is on record?
Answer: The value was “B (EC1.5 1-25 μM)”.

Question: What about the Emax [2] of the same compound?
Answer: The Emax was < 350%.

Question: Which “TAMRA EC1.5 (μM)” value [3] does the source give for `O=C(Nc1ccccn1)c1cnc2ccc(-c3cccc(C(F)(F)F)c3)nn12` [Compound 4, N-(pyridin-2-yl)-6-(3-(trifluoromethyl)phenyl)imidazo[1,2-b]pyridazine-3-carboxamide] here?
Answer: Its value is “B (EC1.5 1-25 μM)”.

Question: And the Emax [4]?
Answer: Its Emax is < 350%.

Question: For `O=C(Nc1cnn2ccc(-c3ccccc3C(F)(F)F)nc12)c1nc2c(s1)CCCC2` [Compound 810], which “TAMRA EC1.5 (μM)” value [1] is on record?
Answer: Its value is “A (EC1.5<1 μM)”.

Question: What about the Emax [2] of the same compound?
Answer: The Emax was ≥ 350%.

Question: `CCOc1nccc(NC(=O)c2c(C)nn3ccc(-c4ccccc4C(F)(F)F)nc23)n1` [Compound 786] was tested. Which “TAMRA EC1.5 (μM)” value [1] did it give?
Answer: The value was “A (EC1.5<1 μM)”.

Question: What about the Emax [2] of the same compound?
Answer: Its Emax is ≥ 350%.

Question: Which “TAMRA EC1.5 (μM)” value [3] does the source give for `Cc1noc(C)c1-c1ccc2ncc(C(=O)Nc3ccnc(N4CCCC4)c3)n2n1` [Compound 54, 6-(3,5-dimethylisoxazol-4-yl)-N-(2-(pyrrolidin-1-yl)pyridin-4-yl)imidazo[1,2-b]pyridazine-3-carboxamide] here?
Answer: Its value is “C (EC1.5>25 μM)”.

Question: And the Emax [4]?
Answer: The Emax was < 350%.

Question: Which “TAMRA EC1.5 (μM)” value [1] does the source give for `O=C(Nc1cnc2ccc(-c3ccccc3Cl)nn12)c1cnccn1` [Compound 288] here?
Answer: The value was “B (EC1.5 1-25 μM)”.

Question: What about the Emax [2] of the same compound?
Answer: Its Emax is < 350%.

Question: For `COc1nccc(NC(=O)c2c(C)nc3ccc(-c4ccccc4C(F)(F)F)nn23)n1` [Compound 476], which “TAMRA EC1.5” value [5] is on record?
Answer: Its value is “A (EC1.5<1 μM)”.

Question: And the Emax [6]?
Answer: Its Emax is ≥ 350%.

Question: With `O=C(Nc1nccs1)c1cnn2ccc(-c3ccccc3OC(F)(F)F)nc12` [Compound 607] as the compound, how does the “TAMRA EC1.5 (μM)” value [1] read?
Answer: The value was “B (EC1.5 1-25 μM)”.

Question: What about the Emax [2] of the same compound?
Answer: The Emax was < 350%.

Question: For `O=C(Nc1cnn2ccc(-c3ccccc3OC(F)(F)F)nc12)c1cccnc1` [Compound 582], which “TAMRA EC1.5” value [5] is on record?
Answer: Its value is “B (EC1.5 1-25 μM)”.

Question: And the Emax [6]?
Answer: The Emax was < 350%.

Question: Which “TAMRA EC1.5” value [5] does the source give for `O=C(Nc1cncc(OC[C@@H](O)CO)n1)c1cnc2ccc(-c3ccccc3C(F)(F)F)nn12` [Compound 556, (S)-N-(6-(2,3-dihydroxypropoxy)pyrazin-2-yl)-6-(2-(trifluoromethyl)phenyl)imidazo[1,2-b]pyridazine-3-carboxamide] here?
Answer: The value was “A (EC1.5<1 μM)”.

Question: And the Emax [6]?
Answer: Its Emax is ≥ 350%.

Question: How did the “TAMRA EC1.5 (μM)” value [1] turn out when `Cc1csc(NC(=O)c2cnn3ccc(-c4ccccc4OC(F)(F)F)nc23)n1` [Compound 702] was run?
Answer: The value was “A (EC1.5<1 μM)”.

Question: And the Emax [2]?
Answer: The Emax was ≥ 350%.

Question: What does the source list for `Cc1cc(C)nc(NC(=O)c2cnc3c(C)c(C)c(-c4ccccc4C(F)(F)F)nn23)c1` [Compound 228]?
Answer: TAMRA EC1.5 (μM) [1]: A (EC1.5<1 μM); Emax [2]: ≥ 350%

Question: Which “TAMRA EC1.5 (μM)” value [3] does the source give for `O=C(NCc1cccnc1)c1cnc2ccc(-c3cccc(C(F)(F)F)c3)nn12` [Compound 1] here?
Answer: Its value is “B (EC1.5 1-25 μM)”.

Question: What about the Emax [4] of the same compound?
Answer: Its Emax is < 350%.

Question: `Cc1cc(NC(=O)c2cnn3ccc(-c4ccccc4C(F)(F)F)nc23)cc(C)n1` [Compound 504] was tested. Which “TAMRA EC1.5” value [5] did it give?
Answer: Its value is “A (EC1.5<1 μM)”.

Question: And the Emax [6]?
Answer: Its Emax is ≥ 350%.

Question: What does the source list for `O=C(Nc1cnn2ccc(-c3ccccc3C(F)(F)F)nc12)c1cccc(O)n1` [Compound 520]?
Answer: TAMRA EC1.5 [5]: B (EC1.5 1-25 μM); Emax [6]: < 350%

Question: What does the source list for `O=C(Nc1ccccn1)c1cnn2ccc(-c3ccccc3C(F)(F)F)nc12` [Compound 265, N-(pyridin-2-yl)-5-(2-(trifluoromethyl)phenyl)pyrazolo[1,5-a]pyrimidine-3-carboxamide]?
Answer: TAMRA EC1.5 (μM) [1]: A (EC1.5<1 μM); Emax [2]: ≥ 350%

Question: What does the source list for `O=C(Nc1ccnc(N2CCC2)c1)c1cnc2ccc(-c3ccccc3Cl)nn12` [Compound 96]?
Answer: TAMRA EC1.5 (μM) [3]: A (EC1.5<1 μM); Emax [4]: ≥ 350%

Question: What does the source list for `O=C(Nc1ccncc1)c1cnc2ccc(-c3ccccc3Cl)nn12` [Compound 94]?
Answer: TAMRA EC1.5 (μM) [3]: B (EC1.5 1-25 μM); Emax [4]: < 350%

Question: How did the “TAMRA EC1.5” value [5] turn out when `O=C(Nc1ncccn1)c1ncn2ccc(-c3ccccc3C(F)(F)F)nc12` [Compound 453] was run?
Answer: Its value is “B (EC1.5 1-25 μM)”.

Question: And the Emax [6]?
Answer: The Emax was ≥ 350%.

Question: For `O=C(Nc1ccncc1)c1cnc2ccc(-c3c(F)cccc3F)nn12` [Compound 166], which “TAMRA EC1.5 (μM)” value [3] is on record?
Answer: Its value is “C (EC1.5>25 μM)”.

Question: What about the Emax [4] of the same compound?
Answer: Its Emax is < 350%.

Question: `O=C(Nc1ncn2ccc(-c3ccccc3C(F)(F)F)nc12)c1cccc(N2CCOCC2)n1` [Compound 456] was tested. Which “TAMRA EC1.5” value [5] did it give?
Answer: The value was “A (EC1.5<1 μM)”.

Question: What about the Emax [6] of the same compound?
Answer: The Emax was ≥ 350%.

Question: How did the “TAMRA EC1.5 (μM)” value [3] turn out when `O=C(Nc1cnc2ccc(-c3ccccc3C(F)(F)F)nn12)c1cnccn1` [Compound 88] was run?
Answer: The value was “A (EC1.5<1 μM)”.

Question: And the Emax [4]?
Answer: The Emax was ≥ 350%.

Question: With `Cc1nc2c(OC[C@H]3COC(C)(C)O3)cc(-c3ccccc3C(F)(F)F)nn2c1C(=O)Nc1cccnn1` [Compound 745] as the compound, how does the “TAMRA EC1.5 (μM)” value [1] read?
Answer: Its value is “A (EC1.5<1 μM)”.

Question: And the Emax [2]?
Answer: Its Emax is ≥ 350%.

Question: Which results are given for `Cc1nc2ccc(-c3ccccc3C(F)(F)F)nn2c1C(=O)Nc1cccc(N2CCCC2)n1` [Compound 70]?
Answer: TAMRA EC1.5 (μM) [3]: A (EC1.5<1 μM); Emax [4]: ≥ 350%

Question: Which “TAMRA EC1.5 (μM)” value [3] does the source give for `O=C(Nc1cnc2ccc(-c3ccccc3C(F)(F)F)nn12)c1cccc(N2CCC2)n1` [Compound 144] here?
Answer: Its value is “A (EC1.5<1 μM)”.

Question: And the Emax [4]?
Answer: The Emax was ≥ 350%.

Question: `Cc1ccnc(NC(=O)c2c(C)nc3ccc(-c4ccccc4OC[C@H](O)CO)nn23)c1` [Compound 817] was tested. Which “TAMRA EC1.5 (μM)” value [1] did it give?
Answer: Its value is “A (EC1.5<1 μM)”.

Question: What about the Emax [2] of the same compound?
Answer: The Emax was ≥ 350%.

Question: With `Cc1scnc1C(=O)Nc1cnc2c(C)c(C)c(-c3ccccc3C(F)(F)F)nn12` [Compound 403] as the compound, how does the “TAMRA EC1.5” value [5] read?
Answer: Its value is “A (EC1.5<1 μM)”.

Question: And the Emax [6]?
Answer: The Emax was ≥ 350%.

Question: `O=C(Nc1cnc2ccc(-c3ccccc3OC(F)(F)F)nn12)c1nccs1` [Compound 319] was tested. Which “TAMRA EC1.5 (μM)” value [1] did it give?
Answer: Its value is “A (EC1.5<1 μM)”.

Question: And the Emax [2]?
Answer: Its Emax is ≥ 350%.

Question: Which “TAMRA EC1.5” value [5] does the source give for `Cc1nc2c(C)cc(-c3ccccc3C(F)(F)F)nn2c1C(=O)Nc1cccc(N2CC3(COC3)C2)n1` [Compound 562] here?
Answer: The value was “A (EC1.5<1 μM)”.

Question: What about the Emax [6] of the same compound?
Answer: The Emax was ≥ 350%.

Question: `Cc1nc2ccc(-c3ccccc3Cl)nn2c1NC(=O)c1cccc(N2CCC2)n1` [Compound 356] was tested. Which “TAMRA EC1.5 (μM)” value [1] did it give?
Answer: The value was “A (EC1.5<1 μM)”.

Question: And the Emax [2]?
Answer: Its Emax is < 350%.

Question: Which results are given for `Cn1cc(-c2ccc3ncc(C(=O)Nc4ccnc(N5CCCC5)c4)n3n2)cn1` [Compound 57]?
Answer: TAMRA EC1.5 (μM) [3]: C (EC1.5>25 μM); Emax [4]: < 350%

Question: Which results are given for `Cc1nccc(NC(=O)c2cnn3ccc(-c4ccccc4C(F)(F)F)nc23)c1C` [Compound 620]?
Answer: TAMRA EC1.5 (μM) [1]: B (EC1.5 1-25 μM); Emax [2]: < 350%

Question: With `Cc1nc2ccc(-c3ccccc3C(F)(F)F)nn2c1C(=O)Nc1ccccn1` [Compound 498] as the compound, how does the “TAMRA EC1.5” value [5] read?
Answer: Its value is “A (EC1.5<1 μM)”.

Question: And the Emax [6]?
Answer: The Emax was ≥ 350%.

Question: With `O=C(Nc1ccncc1F)c1cnc2ccc(-c3ccccc3OC(F)(F)F)nn12` [Compound 359] as the compound, how does the “TAMRA EC1.5 (μM)” value [1] read?
Answer: The value was “B (EC1.5 1-25 μM)”.

Question: And the Emax [2]?
Answer: Its Emax is ≥ 350%.
